Article PMC7238409, “Interactions of TiO2 Nanoparticles with Ingredients from Modern Lifestyle Products and Their Effects on Human Skin Cells” (Chemical Research in Toxicology, 2020)
Like-named read-outs stand apart in the source and are kept apart here.

Experiments:
[1] = system: nNHDF cells; experiment: Reactive oxygen species assay (DCFDA) with side scatter signal (SSC), flow cytometry; conditions: concentrations of Table 1, with or without 100 μg/mL TiO2 NPs; H2O2 100 μM
[2] = Nanoparticle tracking analysis (NTA) of TiO2 NPs after incubation with MLP ingredients; format: physicochemical; conditions: 0.1 mg/mL TiO2 NPs + 0.1 mg/mL MLP ingredient, 60 min, diluted 1:100 in water
[3] = system: nNHDF cells; experiment: Annexin V/Propidiumiodide apoptosis/necrosis assay, flow cytometry; format: cell-based, human
[4] = system: nNHDF cells; experiment: Glutathione assay (total glutathione and GSSG, Tietze method); format: cell-based, human; conditions: 4 h, concentrations of Table 1, absence of TiO2 NPs
Procedure: Intracellular total and oxidized glutathione was determined by the earlier published Tietze method,[33] which was adapted to microtiter plates. Briefly, cells were lysed in 200 μL of 1% (w/v) sulfosalicylic acid (SSA), and 10 μL of the lysates were diluted with 90 μL of H2O and subsequently mixed with 100 μL of a reaction mixture containing 0.3 mM DTNB, 0.4 mM NADPH, 1 mM EDTA, and 1 U/mL glutathione reductase in 0.1 mM sodium phosphate buffer, pH = 7.5. The absorbance at 405 nm was continuously recorded over a time frame of 10 min. Glutathione concentrations were determined by comparing the increase in absorption of samples with the increase in absorption of standards with known concentrations. In order to determine the amount of oxidized glutathione (glutathione disulfide, GSSG), the samples were pretreated with 2-vinylpyridine (2-VP). The sample (cell lysate in SSA, 130 μL) was mixed with 5 μL of 2-VP, and the pH was subsequently adjusted to 6 using 0.2 M Tris-solution. Samples were incubated at room temperature for 60 min, and then 10 μL of the samples were assayed for glutathione, as described above.
Cellular protein contents were determined after lysis of the cells in 200 μL of 0.5 M NaOH according to the Lowry method[34] using bovine serum albumin as a standard.

[5] = system: nNHDF cells; experiment: Neutral Red Uptake (NRU) assay, lysosomal integrity; format: cell-based, human; conditions: 24 h, absence of TiO2 NPs (control)
[6] = system: nNHDF cells; experiment: CellTiter-Blue (CTB) assay, metabolic activity; conditions: 24 h
[7] = read-out: EC50, metabolic activity, control, nNHDF cells, absence of TiO2 NPs (control)

SMILES | # of particles (TiO2 NPs detectable) [2] | particle diameter of TiO2 NPs, D50 [2] | particle diameter of TiO2 NPs, mean [2] | particle diameter of TiO2 NPs, mode [2] | DCFDA signal (ROS) [1] | quadrant number lower left (viable cells), PI / Annexin V plot [3] | quadrant number lower right, PI / Annexin V plot [3] | quadrant number upper left, PI / Annexin V plot [3] | quadrant number upper right, PI / Annexin V plot [3] | EC50 [5] | other results
O=C1C=C(O)C(=O)c2ccccc21 [HNQ, 2-hydroxy-1,4-naphtoquinone] | 498 ± 380 × 10^6 | 141 ± 20 nm | 154 ± 14 nm | 117 ± 18 nm | decreased the amount of detectable ROS significantly | 89.5 | 4.56 | 3.31 | 2.61 | – | –
OO [H2O2, Hydrogen peroxide, reference compound] | – | – | – | – | slight but significant increase in the DCFDA signal | – | – | – | – | – | total cellular glutathione content [4]: lowered significantly
COC(=O)c1ccc(O)cc1 [MP, methyl parabene] | 927 ± 146 × 10^6 | 122 ± 1 nm | 131 ± 2 nm | 106 ± 5 nm | – | – | 6.31 | 2.69 | 1.42 | – | –
CC(C=O)Cc1ccc(C(C)(C)C)cc1 (stereo not shown) [Lilial, 3-(4-tert-butylphenyl)-2-methylpropanal] | 552 ± 248 × 10^6 | 127 ± 6 nm | 136 ± 5 nm | 117 ± 11 nm | – | – | – | – | – | – | EC50 ([5]; Homo sapiens): 0.27 ± 0.07 mM; quadrant number lower left (viable cells), PI / Annexin V plot ([3]; human, 24 h): 94.2; quadrant number lower right, PI / Annexin V plot ([3]; human, 24 h): 1.60; quadrant number upper left, PI / Annexin V plot ([3]; human, 24 h): 3.26; quadrant number upper right, PI / Annexin V plot ([3]; human, 24 h): 0.94; EC50 ([6]; Homo sapiens, read-out: EC50, metabolic activity, control): 0.23 ± 0.05 mM
Nc1ccc(N)cc1 [PPD, para-phenylenediamine] | 1833 ± 93 × 10^6 | 129 ± 17 nm | 138 ± 19 nm | 122 ± 14 nm | decreased the amount of detectable ROS significantly | – | – | – | – | 1.36 ± 0.05 mM | PI fluorescence (necrosis) compared to the control ([3]; 24 h, concentrations of Table 1, together with 100 μg/mL TiO2 NPs): significant difference in PI fluorescence; EC50 ([6]; read-out: EC50 (cytotoxicity, end point not given), nNHDF cells, discussion): ~1 mM; EC50 [6, 7]: 1.19 ± 0.17 mM

Continued, in another order:

# of particles (TiO2 NPs detectable) [2] | particle diameter of TiO2 NPs, D50 [2] | particle diameter of TiO2 NPs, mean [2] | particle diameter of TiO2 NPs, mode [2] | SMILES | DCFDA signal (ROS) [1] | quadrant number lower left (viable cells), PI / Annexin V plot [3] | quadrant number lower right, PI / Annexin V plot [3] | quadrant number upper left, PI / Annexin V plot [3] | quadrant number upper right, PI / Annexin V plot [3] | EC50 [5] | other results
748 ± 137 × 10^6 | 122 ± 12 nm | 136 ± 18 nm | 111 ± 19 nm | CCCCOC(=O)c1ccc(O)cc1 [BP, butyl parabene] | – | 92.9 | 3.13 | 2.57 | 1.38 | 0.69 ± 0.42 mM | amount of viable cells [3]: 79.8%
764 ± 92 × 10^6 | 122 ± 2 nm | 132 ± 5 nm | 105 ± 8 nm | CCOC(=O)c1ccc(O)cc1 [EP, ethyl parabene] | – | 90.0 | 6.57 | 1.97 | 1.47 | 3.54 ± 0.86 mM | –
612 ± 210 × 10^6 | 119 ± 2 nm | 126 ± 1 nm | 103 ± 5 nm | CCCOC(=O)c1ccc(O)cc1 [PP, propyl parabene] | – | 91.2 | 4.55 | 2.46 | 1.77 | 1.27 ± 0.34 mM | EC50 [6, 7]: 1.04 ± 0.02 mM; total cellular glutathione content [4]: significantly lower total cellular glutathione content
